The values below come from PMC4977286 (Frontiers in Pharmacology, 2016).

In general, AUC(0-t) refers to exposure summed from dosing to a finite time, without extrapolation to infinity. Read a low AUC(0-t) as low exposure. By MRT is commonly meant the average time that molecules of a dose stay in the body. In general, half-life refers to how long it takes for the measured level to halve.

Where two headings read alike, the source gives them in different places.

Data set [1] concerns rat liver microsomes. Conditions: for TNP-G formation, Liver microsome: rat. For orientation: Liver microsomes are a subcellular fraction often used to study metabolism.
The target of data set [2] is T1, UGT1A1 (Homo sapiens, UniProt P22309).
T1 sequence (P22309 26-533): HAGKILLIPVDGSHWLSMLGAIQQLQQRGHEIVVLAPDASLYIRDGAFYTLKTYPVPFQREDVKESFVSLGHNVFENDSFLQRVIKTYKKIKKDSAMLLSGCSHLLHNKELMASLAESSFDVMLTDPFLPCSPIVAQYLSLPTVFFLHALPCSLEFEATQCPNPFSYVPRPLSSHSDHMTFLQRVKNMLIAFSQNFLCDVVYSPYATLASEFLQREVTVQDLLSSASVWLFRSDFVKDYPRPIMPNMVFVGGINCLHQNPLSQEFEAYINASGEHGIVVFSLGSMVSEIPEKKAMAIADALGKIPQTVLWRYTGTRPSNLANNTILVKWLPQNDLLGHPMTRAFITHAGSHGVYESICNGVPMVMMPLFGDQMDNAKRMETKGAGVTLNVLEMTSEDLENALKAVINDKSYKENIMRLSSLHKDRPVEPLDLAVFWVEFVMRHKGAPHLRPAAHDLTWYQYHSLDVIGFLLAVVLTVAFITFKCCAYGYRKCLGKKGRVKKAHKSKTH

Data set [3] relates to P-gp.
The conditions of data set [4]: rat, in vivo.
Data set [5] concerns the target MRP2 (Rattus norvegicus, UniProt Q63120). Briefly: Bile clearance of TNP-G in SCRH with MRP2 inhibitors or inducer. Conditions: for BEI of TNP-G, % of the control cells: TNP-G 20 μM; for BEI of TNP-G, % of the control cells / CLbile, int of TNP-G decreased by: inhibitor 100 μM.
In data set [6] the target is MDR1 (Homo sapiens, UniProt P08183).
For data set [7], the target named is T2, BCRP (Homo sapiens, UniProt Q9UNQ0).
T2 sequence (Q9UNQ0 1-655): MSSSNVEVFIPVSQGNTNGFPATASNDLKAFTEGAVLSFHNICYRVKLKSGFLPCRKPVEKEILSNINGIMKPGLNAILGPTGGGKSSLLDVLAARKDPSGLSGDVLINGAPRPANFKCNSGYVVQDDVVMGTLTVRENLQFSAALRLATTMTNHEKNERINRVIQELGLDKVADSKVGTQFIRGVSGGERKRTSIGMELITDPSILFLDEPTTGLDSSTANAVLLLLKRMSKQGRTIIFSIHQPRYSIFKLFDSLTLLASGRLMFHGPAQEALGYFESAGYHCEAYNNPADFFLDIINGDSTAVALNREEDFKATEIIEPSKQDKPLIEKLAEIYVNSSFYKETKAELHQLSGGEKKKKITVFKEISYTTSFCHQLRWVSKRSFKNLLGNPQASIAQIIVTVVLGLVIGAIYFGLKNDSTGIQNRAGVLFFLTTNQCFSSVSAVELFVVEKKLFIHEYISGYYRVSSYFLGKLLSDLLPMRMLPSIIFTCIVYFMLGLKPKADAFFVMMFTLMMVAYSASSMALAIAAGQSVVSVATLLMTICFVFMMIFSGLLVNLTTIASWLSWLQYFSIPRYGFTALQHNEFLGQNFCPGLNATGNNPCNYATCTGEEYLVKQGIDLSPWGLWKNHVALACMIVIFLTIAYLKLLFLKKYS

Data set [8] deals with sandwich-cultured rat hepatocytes (SCRH).
Data set [9] deals with P-gp (Homo sapiens, UniProt P08183).
Data set [10] deals with T3, MRP2 (Homo sapiens, UniProt Q92887).
The conditions of data set [11]: mouse, in vivo.
Data set [12] in a line: in vivo. The note with it: rat.
Data set [13] is described as follows: in vivo. The note with it: mouse, po, 12 mg/kg.
The conditions of data set [14]: cited from earlier work.
Data set [15] addresses T3, MRP2. In kind it is biochemical. On the set-up: purchased BD Gentest Co. (Woburn, MA).

Chain of MRP2 (Rattus norvegicus, UniProt Q63120) (Q63120 whole entry): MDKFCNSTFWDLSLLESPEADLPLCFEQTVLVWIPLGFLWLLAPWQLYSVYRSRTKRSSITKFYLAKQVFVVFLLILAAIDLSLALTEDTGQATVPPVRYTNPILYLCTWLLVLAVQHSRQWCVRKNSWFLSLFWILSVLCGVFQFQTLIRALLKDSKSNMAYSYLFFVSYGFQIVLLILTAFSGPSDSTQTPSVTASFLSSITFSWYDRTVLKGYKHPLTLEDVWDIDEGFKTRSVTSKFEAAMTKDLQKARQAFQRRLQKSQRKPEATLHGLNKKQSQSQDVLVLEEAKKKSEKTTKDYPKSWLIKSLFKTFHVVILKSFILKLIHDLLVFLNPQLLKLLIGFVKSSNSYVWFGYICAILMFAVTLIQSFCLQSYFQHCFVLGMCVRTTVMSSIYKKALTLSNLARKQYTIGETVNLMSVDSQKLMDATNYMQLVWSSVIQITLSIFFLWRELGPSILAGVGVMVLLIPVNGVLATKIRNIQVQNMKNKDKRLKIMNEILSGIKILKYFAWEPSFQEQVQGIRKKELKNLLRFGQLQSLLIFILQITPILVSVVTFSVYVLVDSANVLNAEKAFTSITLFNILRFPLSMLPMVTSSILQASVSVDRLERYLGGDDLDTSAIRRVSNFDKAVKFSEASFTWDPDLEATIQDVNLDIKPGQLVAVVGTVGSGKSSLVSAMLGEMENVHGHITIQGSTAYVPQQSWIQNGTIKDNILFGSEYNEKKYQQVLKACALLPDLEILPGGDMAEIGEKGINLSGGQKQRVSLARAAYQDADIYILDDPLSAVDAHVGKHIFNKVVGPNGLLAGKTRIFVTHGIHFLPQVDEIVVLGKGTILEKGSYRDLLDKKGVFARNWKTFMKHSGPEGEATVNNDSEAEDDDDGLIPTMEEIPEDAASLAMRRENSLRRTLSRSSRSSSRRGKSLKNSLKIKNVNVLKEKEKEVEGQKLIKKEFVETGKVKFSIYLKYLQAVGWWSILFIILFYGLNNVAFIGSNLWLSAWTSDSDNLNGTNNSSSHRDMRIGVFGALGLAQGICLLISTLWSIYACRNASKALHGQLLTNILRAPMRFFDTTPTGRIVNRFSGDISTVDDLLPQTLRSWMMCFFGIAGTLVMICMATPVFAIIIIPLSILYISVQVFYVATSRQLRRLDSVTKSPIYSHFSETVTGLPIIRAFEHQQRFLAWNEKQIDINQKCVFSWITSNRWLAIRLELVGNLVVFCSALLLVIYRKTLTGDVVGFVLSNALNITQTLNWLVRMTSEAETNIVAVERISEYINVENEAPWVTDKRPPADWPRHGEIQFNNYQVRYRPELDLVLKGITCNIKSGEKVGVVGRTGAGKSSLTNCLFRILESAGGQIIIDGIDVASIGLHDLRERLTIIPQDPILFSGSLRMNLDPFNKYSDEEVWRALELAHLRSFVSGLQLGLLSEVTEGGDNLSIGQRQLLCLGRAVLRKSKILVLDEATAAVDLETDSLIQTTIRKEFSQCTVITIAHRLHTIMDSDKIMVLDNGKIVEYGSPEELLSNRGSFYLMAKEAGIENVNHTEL
T3 sequence (Q92887 whole entry): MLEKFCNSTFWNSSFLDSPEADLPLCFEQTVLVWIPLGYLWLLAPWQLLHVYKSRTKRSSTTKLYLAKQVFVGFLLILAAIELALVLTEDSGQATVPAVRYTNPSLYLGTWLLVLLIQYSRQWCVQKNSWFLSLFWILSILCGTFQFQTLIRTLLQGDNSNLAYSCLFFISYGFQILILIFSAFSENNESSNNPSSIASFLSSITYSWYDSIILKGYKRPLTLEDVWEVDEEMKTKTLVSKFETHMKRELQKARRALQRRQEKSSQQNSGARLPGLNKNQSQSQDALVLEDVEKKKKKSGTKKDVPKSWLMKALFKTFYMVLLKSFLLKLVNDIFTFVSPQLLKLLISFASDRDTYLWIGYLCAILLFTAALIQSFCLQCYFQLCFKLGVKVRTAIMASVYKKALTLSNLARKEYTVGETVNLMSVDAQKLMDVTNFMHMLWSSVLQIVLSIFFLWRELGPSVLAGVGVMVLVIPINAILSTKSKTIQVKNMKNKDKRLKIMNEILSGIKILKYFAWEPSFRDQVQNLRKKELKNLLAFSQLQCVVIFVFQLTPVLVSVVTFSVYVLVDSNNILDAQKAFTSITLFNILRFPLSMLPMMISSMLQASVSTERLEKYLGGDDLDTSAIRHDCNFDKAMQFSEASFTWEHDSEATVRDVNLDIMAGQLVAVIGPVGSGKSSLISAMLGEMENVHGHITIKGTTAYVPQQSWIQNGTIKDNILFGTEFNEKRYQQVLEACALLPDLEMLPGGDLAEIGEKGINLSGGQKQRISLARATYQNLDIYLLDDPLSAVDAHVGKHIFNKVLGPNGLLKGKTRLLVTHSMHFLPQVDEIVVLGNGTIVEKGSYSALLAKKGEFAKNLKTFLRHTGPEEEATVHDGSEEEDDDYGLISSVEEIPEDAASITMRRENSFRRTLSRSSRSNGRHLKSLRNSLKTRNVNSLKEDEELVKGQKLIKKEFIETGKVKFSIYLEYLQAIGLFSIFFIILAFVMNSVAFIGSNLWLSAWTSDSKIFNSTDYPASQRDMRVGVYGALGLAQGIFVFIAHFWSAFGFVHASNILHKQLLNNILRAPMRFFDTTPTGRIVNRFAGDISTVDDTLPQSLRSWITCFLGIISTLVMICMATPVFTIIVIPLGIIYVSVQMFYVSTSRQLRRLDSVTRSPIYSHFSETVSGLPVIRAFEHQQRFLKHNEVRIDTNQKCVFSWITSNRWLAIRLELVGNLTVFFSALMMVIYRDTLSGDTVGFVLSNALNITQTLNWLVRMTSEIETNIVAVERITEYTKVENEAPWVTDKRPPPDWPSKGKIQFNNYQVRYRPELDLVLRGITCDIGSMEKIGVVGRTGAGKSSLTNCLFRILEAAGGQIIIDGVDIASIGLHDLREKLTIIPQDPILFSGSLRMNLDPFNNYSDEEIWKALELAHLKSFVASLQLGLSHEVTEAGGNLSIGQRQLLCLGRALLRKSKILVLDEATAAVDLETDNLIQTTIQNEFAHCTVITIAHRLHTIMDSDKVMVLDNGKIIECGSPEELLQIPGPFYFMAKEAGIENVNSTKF
Chain of MDR1 (P08183 whole entry): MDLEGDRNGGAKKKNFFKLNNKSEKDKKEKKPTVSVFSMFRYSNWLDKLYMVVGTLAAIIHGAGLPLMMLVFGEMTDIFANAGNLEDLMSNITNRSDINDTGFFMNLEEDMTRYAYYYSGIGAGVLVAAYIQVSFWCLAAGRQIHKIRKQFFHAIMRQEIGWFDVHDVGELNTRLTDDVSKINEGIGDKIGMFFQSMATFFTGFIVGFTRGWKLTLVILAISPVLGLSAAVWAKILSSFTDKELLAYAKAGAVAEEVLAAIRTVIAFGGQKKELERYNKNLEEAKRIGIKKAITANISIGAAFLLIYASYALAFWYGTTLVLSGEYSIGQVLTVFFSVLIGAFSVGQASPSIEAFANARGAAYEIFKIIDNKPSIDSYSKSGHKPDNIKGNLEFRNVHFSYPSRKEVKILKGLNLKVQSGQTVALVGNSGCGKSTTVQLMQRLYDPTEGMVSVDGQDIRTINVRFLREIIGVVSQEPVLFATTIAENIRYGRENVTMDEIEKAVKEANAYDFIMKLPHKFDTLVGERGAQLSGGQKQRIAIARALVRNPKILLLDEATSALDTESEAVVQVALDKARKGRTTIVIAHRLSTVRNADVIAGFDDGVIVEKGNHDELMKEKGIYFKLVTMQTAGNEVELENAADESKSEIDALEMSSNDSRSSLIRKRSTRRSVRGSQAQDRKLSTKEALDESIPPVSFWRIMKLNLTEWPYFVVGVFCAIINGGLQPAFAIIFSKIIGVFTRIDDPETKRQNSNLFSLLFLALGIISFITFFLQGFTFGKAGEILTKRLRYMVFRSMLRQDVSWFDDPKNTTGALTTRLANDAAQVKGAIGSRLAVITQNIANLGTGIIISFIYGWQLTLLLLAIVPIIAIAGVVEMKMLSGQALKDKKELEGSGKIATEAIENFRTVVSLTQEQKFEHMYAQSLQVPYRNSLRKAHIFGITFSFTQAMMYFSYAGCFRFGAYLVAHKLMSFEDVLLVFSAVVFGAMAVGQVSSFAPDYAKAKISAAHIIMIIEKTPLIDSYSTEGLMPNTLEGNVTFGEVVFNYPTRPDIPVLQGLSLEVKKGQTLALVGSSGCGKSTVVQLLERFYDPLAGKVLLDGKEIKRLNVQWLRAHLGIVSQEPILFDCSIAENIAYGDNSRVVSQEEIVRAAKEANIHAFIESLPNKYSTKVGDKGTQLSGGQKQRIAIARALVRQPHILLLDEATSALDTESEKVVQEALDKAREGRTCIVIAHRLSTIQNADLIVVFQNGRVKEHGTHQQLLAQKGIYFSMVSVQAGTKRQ

`C[C@@H]1C[C@H]2[C@@H]3CCC4=CC(=O)C=C[C@]4(C)[C@@]3(F)[C@@H](O)C[C@]2(C)[C@@]1(O)C(=O)CO` [Dexamethasone, dexamethasone]: the “TNP-G formation, Liver microsome” value in data set [1] was determined as 2219.3 ± 52.8 ng/mL. Besides, in data set [2], the “TNP-G formation, UGT1A1” value is 1542.4 ± 27.9 ng/mL.

Consider `COc1cc2c(cc1OC)CN(CCc1ccc(NC(=O)c3cc(OC)c(OC)cc3NC(=O)c3cnc4ccccc4c3)cc1)CC2` [Tariquidar, tariquidar], for which, in data set [3], the “BEI of TNP, % of the control cells” value turned out to be 34.5% and the “CLbile, int of TNP reduced to” value worked out at 83.1%. Besides, the “cumulative bile excretion of TNP, % of the control level” value in data set [4] stood at 45%. In addition, the “TNP-G formation, Liver microsome” value in [1] (60 min, 100 µM) was 2154.6 ± 26.9 ng/mL. Besides, in data set [2] (60 min, 100 µM), the “TNP-G formation, UGT1A1” value turned out to be 1533.8 ± 25.4 ng/mL.

On to `CN(Cc1cnc2nc(N)nc(N)c2n1)c1ccc(C(=O)N[C@@H](CCC(=O)O)C(=O)O)cc1` [Methotrexate, methotrexate], for which, in [5], the “BEI of TNP-G, % of the control cells” value turned out to be 20% and the “CLbile, int of TNP-G decreased by” value was determined as 74.2%.

`COC12CCC3(CC1C(C)(O)CCc1cccs1)C1Cc4ccc(OC5OC(C(=O)O)C(O)C(O)C5O)c5c4C3(CCN1CC1CC1)C2O5` (stereo not shown) [TNP-G, thienorphine-3-glucuronide]: the “Vanadate-sensitive ATPase activities, MDR1” value in data set [6] is given as 4.2 ± 0.8 nmol/min/mg. The “Vanadate-sensitive ATPase activities, BCRP” value in data set [7] is 5.8 ± 0.8 nmol/min/mg. In [8], the “CLbile, int From Eq. 2” value came out at 11.2 ± 2.7 mL/min/kg; the “CLbile,pred (plasma total concentration) relative to measured CLbile,obs” value was approximately 1.3 fold; the “CLbile,pred From Eq. 3” value worked out at 8.7 ± 1.7 mL/min/kg; the “CLbile,pred From Eq. 4” value was determined as 0.2 ± 0.01 mL/min/kg. For the same compound, the “average BEI (biliary excretion index)” value in data set [8] was 41.4 ± 2.6. Besides, the “intracellular concentration, increase compared with the NC-siRNA group” value in data set [9] is recorded as “not impacted”. The “intracellular concentration, increase compared with the NC-siRNA group” value in [10] is reported as 2.1 fold. Further, the “CLbile,obs From Eq.5” value in data set [4] is 6.9 ± 0.5 mL/min/kg. In data set [11], the “increase in AUC0-t compared to the NC-siRNA group” value is recorded as 1.9 fold and the “increase in Cmax compared to the NC-siRNA group” value was determined as 2.7 fold. In [11] (po, 12 mg/kg), the “AUC(0-t)” value stood at 202.7 ± 70.7 ng·h/mL, the MRT is recorded as 6.7 ± 1.7 h and the t1/2 was found to be 6.1 ± 1.1 h. The same compound gave a dose excreted in data set [12] not above 28%. The compound further had an AUC(0-t) in data set [13] (AUC(0-t)) of 108 ± 19.6 ng·h/mL. In data set [13] (MRT), this compound showed an MRT of 5.7 ± 2 h. Further, the half-life in data set [13] (t1/2) is 4.3 ± 1.7 h. Also, in [14], the “fu,p (plasma unbound fraction)” value is 0.02. In data set [15], the “Transporter substrate finding, MRP2” value is on record as “MRP2 substrate” and the “Vanadate-sensitive ATPase activities, MRP2” value is recorded as 4.1 ± 0.6 nmol/min/mg. Also, the “CLbile,int of TNP-G” value in data set [5] (dexamethasone 0 μM (control)) worked out at 4.2 ± 0.1 mL/min/kg. Besides, the “CLbile,int of TNP-G” value in [5] (methotrexate 0 μM (control)) is 3.1 ± 0.4 mL/min/kg. Besides, the “CLbile,int of TNP-G” value in data set [5] (probenecid 0 μM (control)) was found to be 1.6 ± 0.03 mL/min/kg.

Turning to `O=C(O)c1cc(/N=N/c2ccc(S(=O)(=O)Nc3ccccn3)cc2)ccc1O` [Sulfasalazine, sulfasalazine, reference compound], in data set [7], the “Vanadate-sensitive ATPase activities, BCRP” value came out at 32.2 ± 1.3 nmol/min/mg.

On to `CCCN(CCC)S(=O)(=O)c1ccc(C(=O)O)cc1` [Probenecid, probenecid], for which the “24 h biliary excretion rate of TNP-G, % of the control level” value in data set [4] is recorded as 74%. In addition, in [1], the “effect on TNP glucuronidation” value is on record as “no significant effect”. The “TNP-G formation, Liver microsome” value in data set [1] (60 min, 100 µM) is 2191.5 ± 123.1 ng/mL. Besides, the “TNP-G formation, UGT1A1” value in [2] turned out to be 1527.5 ± 83.9 ng/mL. Further, the “Vanadate-sensitive ATPase activities, MRP2” value in data set [15] was found to be 5.7 ± 0.2 nmol/min/mg. In data set [5], the “BEI of TNP-G, % of the control cells” value came out at 22.8% and the “CLbile, int of TNP-G decreased by” value worked out at 78.1%.

`O=c1c(O)c(-c2ccc(O)c(O)c2)oc2cc(O)cc(O)c12` [Quercetin, quercetin]: in [3] (rat), the “BEI of TNP, fold compared with the control” value came out at 2.1 fold and the “CLbile, int of TNP, fold compared with the control” value stood at 1.7 fold. The “TNP-G formation, Liver microsome” value in data set [1] (60 min, 100 µM) was found to be 2170.7 ± 33.6 ng/mL. Besides, the “TNP-G formation, UGT1A1” value in data set [2] was determined as 1590.8 ± 30.5 ng/mL.
